According to ChEMBL document CHEMBL1201862, “PubChem BioAssay data set” (2004):
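Cells were grown in 96-well plates and exposed to each compound for 48 hours at five concentrations; endpoints were interpolated linearly between bracketing concentrations, or set to the highest concentration if not reached. GI50: concentration for 50% inhibition of growth.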 Active and inactive are the calls of the source. No stated cut-off is given here; in the data, active = GI50 up to about 1.1 µM and inactive = higher.

Legend:
Test in all cases: NCI-60 cell line screen, 48 h
SR = tested on: SR
COLO 205 = tested on: COLO 205
OVCAR-3 = tested on: OVCAR-3
ACHN = tested on: ACHN
SW-620 = tested on: SW-620
786-0 = tested on: 786-0
SNB-78 = tested on: SNB-78
HOP-18 = tested on: HOP-18
DLD-1 = tested on: DLD-1
NCI-H522 = tested on: NCI-H522
LXFL 529 = tested on: LXFL 529
NCI-H23 = tested on: NCI-H23
LOX IMVI = tested on: LOX IMVI
DMS-273 = tested on: DMS-273
NCI/ADR-RES = tested on: NCI/ADR-RES

## Cc1c(OC(C)C(=O)O)ccc2c(-c3ccccc3)cc(=O)oc12 (centres undefined)
SR
  GI50: > 100 µM (inactive)
COLO 205
  GI50: > 100 µM (inactive)
OVCAR-3
  GI50: > 100 µM (inactive)
ACHN
  GI50: > 100 µM (inactive)
SW-620
  GI50: > 100 µM (inactive)
786-0
  GI50: > 100 µM (inactive)
SNB-78
  GI50: > 100 µM (inactive)
HOP-18
  GI50: > 100 µM (inactive)
DLD-1
  GI50: > 100 µM (inactive)
NCI-H522
  GI50: > 100 µM (inactive)
LXFL 529
  GI50: > 100 µM (inactive)
NCI-H23
  GI50: > 100 µM (inactive)
LOX IMVI
  GI50: > 100 µM (inactive)

## O=C(Nc1ccc(Cl)c(Cl)c1)C(=O)C(C(=O)c1ccccc1F)C1OC(=O)c2ccccc21 (centres undefined)
SR
  GI50: 10.4 µM (inactive)
DMS-273
  GI50: 13.2 µM (inactive)
COLO 205
  GI50: 16.1 µM (inactive)
ACHN
  GI50: 31.9 µM (inactive)
SW-620
  GI50: 23.9 µM (inactive)
SNB-78
  GI50: 11.2 µM (inactive)
DLD-1
  GI50: 26.4 µM (inactive)
NCI-H522
  GI50: 12.6 µM (inactive)
LXFL 529
  GI50: 17.6 µM (inactive)
NCI-H23
  GI50: 28.6 µM (inactive)
LOX IMVI
  GI50: 18.4 µM (inactive)

## CC1(Br)S(=O)(=O)OCCOS1(=O)=O
SR
  GI50: > 100 µM (inactive)
DMS-273
  GI50: > 100 µM (inactive)
COLO 205
  GI50: > 100 µM (inactive)
OVCAR-3
  GI50: > 100 µM (inactive)
ACHN
  GI50: > 100 µM (inactive)
SW-620
  GI50: > 100 µM (inactive)
786-0
  GI50: > 100 µM (inactive)
SNB-78
  GI50: > 100 µM (inactive)
DLD-1
  GI50: > 100 µM (inactive)
NCI-H522
  GI50: > 100 µM (inactive)
LXFL 529
  GI50: > 100 µM (inactive)
NCI-H23
  GI50: > 100 µM (inactive)
LOX IMVI
  GI50: > 100 µM (inactive)

## COc1ccc2c(c1)OC(c1ccccc1O)CC2=O (centres undefined)
OVCAR-3
  GI50: 28.1 µM (inactive)
ACHN
  GI50: 46.2 µM (inactive)
SW-620
  GI50: 40.6 µM (inactive)
786-0
  GI50: 40.5 µM (inactive)
SNB-78
  GI50: 26.5 µM (inactive)
HOP-18
  GI50: 5.64 µM (inactive)
DLD-1
  GI50: 29 µM (inactive)
NCI-H522
  GI50: 27.9 µM (inactive)
LXFL 529
  GI50: 21.7 µM (inactive)
NCI-H23
  GI50: 28.7 µM (inactive)

## NCC(Cl)C(O)c1c[nH]c(N)n1 (centres undefined)
DMS-273
  GI50: 2.05 µM (inactive)
COLO 205
  GI50: 0.306 µM (active)
OVCAR-3
  GI50: 2.03 µM (inactive)
SW-620
  GI50: 0.37 µM (active)
SNB-78
  GI50: 9.79 µM (inactive)
HOP-18
  GI50: 0.275 µM (active)
NCI/ADR-RES
  GI50: 0.596 µM (active)
DLD-1
  GI50: 1.84 µM (inactive)
NCI-H522
  GI50: 1.93 µM (inactive)
NCI-H23
  GI50: 1.49 µM (inactive)
LOX IMVI
  GI50: 1.24 µM (inactive)

## COc1cc(C(C)c2cc3c(cc2OCCOCCOc2cc4c(cc2C(C)c2cc(OC)c(OC)c(OC)c2)OCO4)OCO3)cc(OC)c1OC (centres undefined)
SR
  GI50: > 10 µM (inactive)
DMS-273
  GI50: > 10 µM (inactive)
COLO 205
  GI50: > 10 µM (inactive)
OVCAR-3
  GI50: > 10 µM (inactive)
ACHN
  GI50: > 10 µM (inactive)
SW-620
  GI50: > 10 µM (inactive)
786-0
  GI50: > 10 µM (inactive)
SNB-78
  GI50: > 10 µM (inactive)
HOP-18
  GI50: > 10 µM (inactive)
DLD-1
  GI50: > 10 µM (inactive)
NCI-H522
  GI50: > 10 µM (inactive)
LXFL 529
  GI50: > 10 µM (inactive)
NCI-H23
  GI50: > 10 µM (inactive)
LOX IMVI
  GI50: > 10 µM (inactive)

## O=C(NC(Cc1ccc(Cl)cc1)C(=O)O)c1ccc(I)cc1 (centres undefined)
DMS-273
  GI50: > 100 µM (inactive)
COLO 205
  GI50: > 100 µM (inactive)
OVCAR-3
  GI50: 76.7 µM (inactive)
SW-620
  GI50: > 100 µM (inactive)
SNB-78
  GI50: > 100 µM (inactive)
HOP-18
  GI50: > 100 µM (inactive)
NCI/ADR-RES
  GI50: > 100 µM (inactive)
DLD-1
  GI50: > 100 µM (inactive)
NCI-H522
  GI50: > 83.2 µM (inactive)
NCI-H23
  GI50: > 100 µM (inactive)
LOX IMVI
  GI50: > 100 µM (inactive)

## CC1CC(c2ccccc2)=Nc2ccccc2S1 (centres undefined)
SR
  GI50: > 100 µM (inactive)
DMS-273
  GI50: > 100 µM (inactive)
COLO 205
  GI50: > 100 µM (inactive)
ACHN
  GI50: > 100 µM (inactive)
SW-620
  GI50: > 100 µM (inactive)
SNB-78
  GI50: > 100 µM (inactive)
DLD-1
  GI50: > 100 µM (inactive)
NCI-H522
  GI50: 41.9 µM (inactive)
LXFL 529
  GI50: > 100 µM (inactive)
NCI-H23
  GI50: > 100 µM (inactive)
LOX IMVI
  GI50: 84.7 µM (inactive)
